Experimental data from US20230085307A1, “PYRIDAZINONE COMPOUND AND HERBICIDE” (NISSAN CHEMICAL CORPORATION, priority 2019, published 2023).

Legend:
late watergrass = assay: Test Example 1: herbicidal activity, application before weed generation under submerged conditions (Table 16, symbol A); format: in vivo, late watergrass (Echinochloa oryzicola); settings: 320 g/ha applied herbicide
In short: (§1)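 Submerged Wagner pots (alluvial soil, 4 cm water) sown with weed seeds and planted with 2.5-leaf rice seedlings; emulsifiable concentrate diluted in water applied to water surface on sowing day. Held in greenhouse at 25-30 °C; injury scored 0-5 by herbicidal rate after three weeks.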

Japanese bulrush = assay: Test Example 1: herbicidal activity, application before weed generation under submerged conditions (Table 16, symbol B); format: in vivo, Japanese bulrush (Schoenoplectus juncoides); settings: 320 g/ha applied herbicide
In short: as §1

oval-leafed pondweed = assay: Test Example 1: herbicidal activity, application before weed generation under submerged conditions (Table 16, symbol C); format: in vivo, oval-leafed pondweed (Monochoria vaginalis); settings: 320 g/ha applied herbicide
In short: as §1

barnyard grass [1] = assay: Test Example 3: herbicidal effect by foliage application, Wagner pot (Table 18, symbol H); format: in vivo, barnyard grass (Echinochloa crus-galli); settings: amount of applied herbicide 320 g/ha
In short: (§2)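 Plants were sown in alluvial soil held under 0.1–0.5 cm standing water and grown 14 days in a greenhouse at 25–30 °C. An emulsifiable formulation, water-diluted to the set dose, was then sprayed onto the foliage, and effects were scored three weeks later using previously defined criteria.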

Chinese sprangletop = assay: Test Example 3: herbicidal effect by foliage application, Wagner pot (Table 18, symbol D); format: in vivo, chinese sprangletop (Leptochloa chinensis); settings: amount of applied herbicide 320 g/ha
In short: as §2

rice flat sedge = assay: Test Example 3: herbicidal effect by foliage application, Wagner pot (Table 18, symbol E); format: in vivo, rice flat sedge (Cyperus iria); settings: amount of applied herbicide 320 g/ha
In short: as §2

southern crabgrass [2] = assay: Test Example 4: herbicidal effect by soil treatment (Table 19, symbol F); format: in vivo, southern crabgrass (Digitaria ciliaris); settings: amount of applied herbicide 320 g/ha
In short: (§3)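 Scoring uses the grading scale of an earlier test, three weeks post-application. Treatment consists of spraying a diluted emulsion formulation across the surface of sterilized diluvial soil in which seeds are buried near 1.5 cm deep; boxes are kept in a greenhouse between 25° C. and 30° C.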

green foxtail [3] = assay: Test Example 4: herbicidal effect by soil treatment (Table 19, symbol G); format: in vivo, green foxtail (Setaria viridis); settings: amount of applied herbicide 320 g/ha
In short: as §3

barnyard grass [4] = assay: Test Example 4: herbicidal effect by soil treatment (Table 19, symbol H); format: in vivo, barnyard grass (Echinochloa crus-galli); settings: amount of applied herbicide 320 g/ha
In short: as §3

wild oat [5] = assay: Test Example 4: herbicidal effect by soil treatment (Table 19, symbol I); format: in vivo, wild oat (Avena fatua); settings: amount of applied herbicide 320 g/ha
In short: as §3

blackgrass [6] = assay: Test Example 4: herbicidal effect by soil treatment (Table 19, symbol J); format: in vivo, blackgrass (Alopecurus myosuroides); settings: amount of applied herbicide 320 g/ha
In short: as §3

Italian ryegrass [7] = assay: Test Example 4: herbicidal effect by soil treatment (Table 19, symbol K); format: in vivo, Italian ryegrass (Lolium multiflorum); settings: amount of applied herbicide 320 g/ha
In short: as §3

windgrass [8] = assay: Test Example 4: herbicidal effect by soil treatment (Table 19, symbol L); format: in vivo, windgrass (Apera spica-venti); settings: amount of applied herbicide 320 g/ha
In short: as §3

velvetleaf [9] = assay: Test Example 4: herbicidal effect by soil treatment (Table 19, symbol M); format: in vivo, velvetleaf (Abutilon theophrasti); settings: amount of applied herbicide 320 g/ha
In short: as §3

redroot pigweed [10] = assay: Test Example 4: herbicidal effect by soil treatment (Table 19, symbol N); format: in vivo, redroot pigweed (Amaranthus retroflexus); settings: amount of applied herbicide 320 g/ha
In short: as §3

lambsquarters [11] = assay: Test Example 4: herbicidal effect by soil treatment (Table 19, symbol O); format: in vivo, lambsquarters (Chenopodium album); settings: amount of applied herbicide 320 g/ha
In short: as §3

chickweed [12] = assay: Test Example 4: herbicidal effect by soil treatment (Table 19, symbol P); format: in vivo, common chickweed (Stellaria media); settings: amount of applied herbicide 320 g/ha
In short: as §3

false cleavers = assay: Test Example 4: herbicidal effect by soil treatment (Table 19, symbol Q); format: in vivo, false cleavers (Galium spurium); settings: amount of applied herbicide 320 g/ha
In short: as §3

persian speedwell [13] = assay: Test Example 4: herbicidal effect by soil treatment (Table 19, symbol R); format: in vivo, Persian speedwell (Veronica persica); settings: amount of applied herbicide 320 g/ha
In short: as §3

southern crabgrass [14] = assay: Test Example 5: herbicidal effect by foliage application, plastic box (Table 20, symbol F); format: in vivo, southern crabgrass (Digitaria ciliaris); settings: foliage application, AAH 320 g/ha, evaluated three weeks after application
In short: (§4)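 Post-emergence foliar test in sterilized diluvial soil. Compound applied as water-diluted emulsion at a predetermined rate to 14-day-old plants; evaluation at three weeks.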

green foxtail [15] = assay: Test Example 5: herbicidal effect by foliage application, plastic box (Table 20, symbol G); format: in vivo, green foxtail (Setaria viridis); settings: foliage application, AAH 320 g/ha, evaluated three weeks after application
In short: as §4

barnyard grass [16] = assay: Test Example 5: herbicidal effect by foliage application, plastic box (Table 20, symbol H); format: in vivo, barnyard grass (Echinochloa crus-galli); settings: foliage application, AAH 320 g/ha, evaluated three weeks after application
In short: as §4

wild oat [17] = assay: Test Example 5: herbicidal effect by foliage application, plastic box (Table 20, symbol I); format: in vivo, wild oat (Avena fatua); settings: foliage application, AAH 320 g/ha, evaluated three weeks after application
In short: as §4

blackgrass [18] = assay: Test Example 5: herbicidal effect by foliage application, plastic box (Table 20, symbol J); format: in vivo, blackgrass (Alopecurus myosuroides); settings: foliage application, AAH 320 g/ha, evaluated three weeks after application
In short: as §4

Italian ryegrass [19] = assay: Test Example 5: herbicidal effect by foliage application, plastic box (Table 20, symbol K); format: in vivo, Italian ryegrass (Lolium multiflorum); settings: foliage application, AAH 320 g/ha, evaluated three weeks after application
In short: as §4

windgrass [20] = assay: Test Example 5: herbicidal effect by foliage application, plastic box (Table 20, symbol L); format: in vivo, windgrass (Apera spica-venti); settings: foliage application, AAH 320 g/ha, evaluated three weeks after application
In short: as §4

velvetleaf [21] = assay: Test Example 5: herbicidal effect by foliage application, plastic box (Table 20, symbol M); format: in vivo, velvetleaf (Abutilon theophrasti); settings: foliage application, AAH 320 g/ha, evaluated three weeks after application
In short: as §4

redroot pigweed [22] = assay: Test Example 5: herbicidal effect by foliage application, plastic box (Table 20, symbol N); format: in vivo, redroot pigweed (Amaranthus retroflexus); settings: foliage application, AAH 320 g/ha, evaluated three weeks after application
In short: as §4

lambsquarters [23] = assay: Test Example 5: herbicidal effect by foliage application, plastic box (Table 20, symbol O); format: in vivo, lambsquarters (Chenopodium album); settings: foliage application, AAH 320 g/ha, evaluated three weeks after application
In short: as §4

chickweed [24] = assay: Test Example 5: herbicidal effect by foliage application, plastic box (Table 20, symbol P); format: in vivo, common chickweed (Stellaria media); settings: foliage application, AAH 320 g/ha, evaluated three weeks after application
In short: as §4

persian speedwell [25] = assay: Test Example 5: herbicidal effect by foliage application, plastic box (Table 20, symbol R); format: in vivo, Persian speedwell (Veronica persica); settings: foliage application, AAH 320 g/ha, evaluated three weeks after application
In short: as §4

Compound	Herbicidal effect on A: late watergrass (grade 0-5) (late watergrass)	Herbicidal effect on B: Japanese bulrush (grade 0-5) (Japanese bulrush)	Herbicidal effect on C: oval-leafed pondweed (grade 0-5) (oval-leafed pondweed)	herbicidal effect on H: barnyard grass (barnyard grass [1])	herbicidal effect on D: Chinese sprangletop (Chinese sprangletop)	herbicidal effect on E: rice flat sedge (rice flat sedge)	herbicidal effect on F: southern crabgrass (southern crabgrass [2])	herbicidal effect on G: green foxtail (green foxtail [3])	herbicidal effect on H: barnyard grass (barnyard grass [4])	herbicidal effect on I: wild oat (wild oat [5])	herbicidal effect on J: blackgrass (blackgrass [6])	herbicidal effect on K: Italian ryegrass (Italian ryegrass [7])	herbicidal effect on L: windgrass (windgrass [8])	herbicidal effect on M: velvetleaf (velvetleaf [9])	herbicidal effect on N: redroot pigweed (redroot pigweed [10])	herbicidal effect on O: lambsquarters (lambsquarters [11])	herbicidal effect on P: chickweed (chickweed [12])	herbicidal effect on Q: false cleavers (false cleavers)	herbicidal effect on R: persian speedwell (persian speedwell [13])	F: southern crabgrass, herbicidal effect (criteria 0-5) (southern crabgrass [14])	other results
COCCOCOc1c(C)nn(C)c(=O)c1-c1c(-c2ccc(OC(F)F)cc2)sc2ccc(F)cc12 [2-307]	0 (Herbicidal rate of 5% or less (almost no effect))	3 (Herbicidal rate of 40% or more and less than 70%)	0 (Herbicidal rate of 5% or less (almost no effect))	5 (Herbicidal rate of 90% or more (almost completely withered))	5 (Herbicidal rate of 90% or more (almost completely withered))	4 (Herbicidal rate of 70% or more and less than 90%)	4 (Herbicidal rate of 70% or more and less than 90%)	4 (Herbicidal rate of 70% or more and less than 90%)	3 (Herbicidal rate of 40% or more and less than 70%)	0 (Herbicidal rate of 5% or less (almost no effect))	2 (Herbicidal rate of 20% or more and less than 40%)	1 (Herbicidal rate of 5% or more and less than 20%)	0 (Herbicidal rate of 5% or less (almost no effect))	0 (Herbicidal rate of 5% or less (almost no effect))	5 (Herbicidal rate of 90% or more (almost completely withered))	5 (Herbicidal rate of 90% or more (almost completely withered))	3 (Herbicidal rate of 40% or more and less than 70%)	0 (Herbicidal rate of 5% or less (almost no effect))	5 (Herbicidal rate of 90% or more (almost completely withered))	2 (Herbicidal rate of 20% or more and less than 40%)	G: green foxtail, herbicidal effect (criteria 0-5) (green foxtail [15]): 5 (Herbicidal rate of 90% or more (almost completely withered)); H: barnyard grass, herbicidal effect (criteria 0-5) (barnyard grass [16]): 5 (Herbicidal rate of 90% or more (almost completely withered)); I: wild oat, herbicidal effect (criteria 0-5) (wild oat [17]): 3 (Herbicidal rate of 40% or more and less than 70%); J: blackgrass, herbicidal effect (criteria 0-5) (blackgrass [18]): 4 (Herbicidal rate of 70% or more and less than 90%); K: Italian ryegrass, herbicidal effect (criteria 0-5) (Italian ryegrass [19]): 5 (Herbicidal rate of 90% or more (almost completely withered)); L: windgrass, herbicidal effect (criteria 0-5) (windgrass [20]): 3 (Herbicidal rate of 40% or more and less than 70%); M: velvetleaf, herbicidal effect (criteria 0-5) (velvetleaf [21]): 5 (Herbicidal rate of 90% or more (almost completely withered)); N: redroot pigweed, herbicidal effect (criteria 0-5) (redroot pigweed [22]): 5 (Herbicidal rate of 90% or more (almost completely withered)); O: lambsquarters, herbicidal effect (criteria 0-5) (lambsquarters [23]): 5 (Herbicidal rate of 90% or more (almost completely withered)); P: chickweed, herbicidal effect (criteria 0-5) (chickweed [24]): 5 (Herbicidal rate of 90% or more (almost completely withered)); R: persian speedwell, herbicidal effect (criteria 0-5) (persian speedwell [25]): 5 (Herbicidal rate of 90% or more (almost completely withered))
CSCCSCc1ccc(-c2sc3ccc(F)cc3c2-c2c(O)c(C)nn(C)c2=O)cc1 [2-329]	2 (Herbicidal rate of 20% or more and less than 40%)	0 (Herbicidal rate of 5% or less (almost no effect))	0 (Herbicidal rate of 5% or less (almost no effect))	5 (Herbicidal rate of 90% or more (almost completely withered))	4 (Herbicidal rate of 70% or more and less than 90%)	4 (Herbicidal rate of 70% or more and less than 90%)	0 (Herbicidal rate of 5% or less (almost no effect))	0 (Herbicidal rate of 5% or less (almost no effect))	0 (Herbicidal rate of 5% or less (almost no effect))	0 (Herbicidal rate of 5% or less (almost no effect))	0 (Herbicidal rate of 5% or less (almost no effect))	0 (Herbicidal rate of 5% or less (almost no effect))	0 (Herbicidal rate of 5% or less (almost no effect))	0 (Herbicidal rate of 5% or less (almost no effect))	3 (Herbicidal rate of 40% or more and less than 70%)	0 (Herbicidal rate of 5% or less (almost no effect))	0 (Herbicidal rate of 5% or less (almost no effect))	0 (Herbicidal rate of 5% or less (almost no effect))	0 (Herbicidal rate of 5% or less (almost no effect))	5 (Herbicidal rate of 90% or more (almost completely withered))	G: green foxtail, herbicidal effect (criteria 0-5) (green foxtail [15]): 5 (Herbicidal rate of 90% or more (almost completely withered)); H: barnyard grass, herbicidal effect (criteria 0-5) (barnyard grass [16]): 4 (Herbicidal rate of 70% or more and less than 90%); I: wild oat, herbicidal effect (criteria 0-5) (wild oat [17]): 3 (Herbicidal rate of 40% or more and less than 70%); J: blackgrass, herbicidal effect (criteria 0-5) (blackgrass [18]): 4 (Herbicidal rate of 70% or more and less than 90%); K: Italian ryegrass, herbicidal effect (criteria 0-5) (Italian ryegrass [19]): 4 (Herbicidal rate of 70% or more and less than 90%); L: windgrass, herbicidal effect (criteria 0-5) (windgrass [20]): 5 (Herbicidal rate of 90% or more (almost completely withered)); M: velvetleaf, herbicidal effect (criteria 0-5) (velvetleaf [21]): 5 (Herbicidal rate of 90% or more (almost completely withered)); N: redroot pigweed, herbicidal effect (criteria 0-5) (redroot pigweed [22]): 5 (Herbicidal rate of 90% or more (almost completely withered)); O: lambsquarters, herbicidal effect (criteria 0-5) (lambsquarters [23]): 4 (Herbicidal rate of 70% or more and less than 90%); P: chickweed, herbicidal effect (criteria 0-5) (chickweed [24]): 5 (Herbicidal rate of 90% or more (almost completely withered)); R: persian speedwell, herbicidal effect (criteria 0-5) (persian speedwell [25]): 5 (Herbicidal rate of 90% or more (almost completely withered))
